In assay [1] the target is T1, UspC (Mtb-UspC, Rv2318), solute-binding protein of the UspABC transporter (Mycobacterium tuberculosis, UniProt P71894).
T1 construct: UspCNt, N-terminally truncated, residues 31–441, His6-tagged
Put plainly: thermal shift saturation binding (Kd,app), Tm shift […]°C at […].

Assay [2] addresses T1, UspC (Mtb-UspC, Rv2318), solute-binding protein of the UspABC transporter. Put plainly: STD-NMR ([…] ligand, […] protein) and thermal shift.

Structures are written as SMILES.

T1 sequence (P71894 entry or part of it): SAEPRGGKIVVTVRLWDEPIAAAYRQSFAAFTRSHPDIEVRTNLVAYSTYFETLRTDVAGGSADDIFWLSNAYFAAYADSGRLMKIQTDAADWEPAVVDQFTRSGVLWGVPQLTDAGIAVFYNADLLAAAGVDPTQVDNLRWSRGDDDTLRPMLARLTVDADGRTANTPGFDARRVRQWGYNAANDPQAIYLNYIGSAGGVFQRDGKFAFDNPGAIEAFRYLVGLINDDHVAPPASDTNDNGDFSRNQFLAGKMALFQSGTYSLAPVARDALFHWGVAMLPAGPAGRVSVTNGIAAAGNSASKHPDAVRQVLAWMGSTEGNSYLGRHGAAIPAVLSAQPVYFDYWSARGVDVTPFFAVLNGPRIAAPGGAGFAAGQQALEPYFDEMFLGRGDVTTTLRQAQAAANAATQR

Consider `N[C@H]1C(O)O[C@H](COP(=O)(O)O)[C@@H](O)[C@@H]1O` (stereo partly drawn) [D-glucosamine-6-phosphate], for which the Kd in assay [1] is 27.7 ± 6.4 mM.

`N[C@H]1C(O)O[C@H](CO)[C@@H](O)[C@@H]1O` (stereo partly drawn) [D-glucosamine]: the “STD-NMR (50 mM ligand, 30 μM protein) and thermal shift” value in assay [2] was “H2 (α and β) and H4 (α and β) of D-glucosamine interact non-covalently with Mtb-UspCNt”.

Values taken from paper PMC4929945, “Structural and functional analysis of the solute-binding protein UspC from Mycobacterium tuberculosis that is specific for amino sugars” (Open Biology, 2016).
